Results as given in patent publication US10550105B2 (Ribon Therapeutics Inc., priority 2018, dated 2020).

target: PARP7 (Homo sapiens (Human), UniProt Q7Z3E1); assay: Enzymatic assay for inhibition of PARP7: TR-FRET displacement of biotinylated Probe A from the TIPARP active site; type: binding; details: Table A-1
In short: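 Titrated compounds compete with the biotinylated probe; after an additional 30 min incubation at 25° C, time-delayed fluorescence (90 μs) is measured. Inhibition curves use a Hill coefficient that normally floats but may be held at 1.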

Sequence of PARP7 (Q7Z3E1 whole entry): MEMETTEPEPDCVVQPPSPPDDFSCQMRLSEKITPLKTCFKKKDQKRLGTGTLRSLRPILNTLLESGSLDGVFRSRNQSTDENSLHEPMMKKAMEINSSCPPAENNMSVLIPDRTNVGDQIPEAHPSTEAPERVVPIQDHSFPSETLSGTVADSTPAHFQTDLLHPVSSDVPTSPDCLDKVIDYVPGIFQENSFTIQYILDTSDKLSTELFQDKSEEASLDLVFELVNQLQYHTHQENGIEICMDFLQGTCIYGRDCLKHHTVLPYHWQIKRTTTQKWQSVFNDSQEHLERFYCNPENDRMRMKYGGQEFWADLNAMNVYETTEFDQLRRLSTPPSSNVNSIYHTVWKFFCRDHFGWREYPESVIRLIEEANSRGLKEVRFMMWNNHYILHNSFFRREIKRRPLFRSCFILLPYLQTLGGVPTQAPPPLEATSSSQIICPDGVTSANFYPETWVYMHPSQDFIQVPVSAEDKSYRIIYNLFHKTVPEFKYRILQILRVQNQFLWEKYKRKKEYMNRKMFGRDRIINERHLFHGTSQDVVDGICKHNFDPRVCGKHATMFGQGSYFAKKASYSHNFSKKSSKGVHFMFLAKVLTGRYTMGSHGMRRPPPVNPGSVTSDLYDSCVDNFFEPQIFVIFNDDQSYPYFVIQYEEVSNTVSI

IC50	SMILES
< 100 nM	N#Cc1ccc(N2CCN(C(=O)c3ccnc(OC[C@@H]4CCCN4c4cn[nH]c(=O)c4C(F)(F)F)c3)CC2)nc1 [Example 69, 6-[4-[(2-[[(2S)-1-[6-oxo-5-(trifluoromethyl)-1,6-dihydropyridazin-4-yl]pyrrolidin-2-yl]methoxy]pyridin-4-yl)carbonyl]piperazin-1-yl]pyridine-3-carbonitrile]
< 100 nM	N#Cc1ccc(N2CCN(C(=O)COCC[C@@H]3CCCN3c3cn[nH]c(=O)c3C(F)(F)F)CC2)nc1 [Example 88, (S)-6-(4-(2-(2-(1-(6-oxo-5-(trifluoromethyl)-1,6-dihydropyridazin-4-yl)pyrrolidin-2-yl)ethoxy)acetyl)piperazin-1-yl)nicotinonitrile]
< 100 nM	N#Cc1ccc(N2CCN(C(=O)C[C@H]3CC[C@@H](CNc4cn[nH]c(=O)c4C(F)(F)F)O3)CC2)nc1 (single isomer, unassigned) [Example 581 Isomer A]
< 100 nM	C[C@@H](COCCC(=O)N1CCN(c2ncc(C(F)(F)F)cn2)CC1)Nc1cn[nH]c(=O)c1Cl [Example 599, (S)-4-Chloro-5-(1-(3-oxo-3-(4-(5-(trifluoromethyl)pyrimidin-2-yl)piperazin-1-yl)propoxy)propan-2-ylamino)pyridazin-3(2H)-one]
< 100 nM	N#Cc1cnc(N2CCN(C(=O)CCOC[C@@H]3CCCN3c3cn[nH]c(=O)c3C(F)(F)F)CC2)nc1 [Example 461, (S)-2-(4-(3-((1-(6-Oxo-5-(trifluoromethyl)-1,6-dihydropyridazin-4-yl)pyrrolidin-2-yl)methoxy)propanoyl)piperazin-1-yl)pyrimidine-5-carbonitrile]
< 100 nM	N#Cc1ccc(N2CCN(C(=O)[C@H]3C[C@@H](OC[C@H]4CCN(c5cn[nH]c(=O)c5C(F)(F)F)C4)C3)CC2)nc1 [Example 121B, 6-(4-((1S,3S)-3-((1-(6-oxo-5-(trifluoromethyl)-1,6-dihydropyridazin-4-yl)pyrrolidin-3-yl)methoxy)cyclobutanecarbonyl)piperazin-1-yl)nicotinonitrile]
100 to 1000 nM	O=C(C[C@H]1CC[C@H](COc2cn[nH]c(=O)c2C(F)(F)F)O1)N1CCN(c2ncc(Cl)cn2)CC1 (single isomer, unassigned) [Example 565 Isomer B]
< 100 nM	N#Cc1ccc(N2CCC(NC(=O)CCOC[C@@H]3CCCN3c3cn[nH]c(=O)c3C(F)(F)F)CC2)nc1 [Example 115, N-[1-(5-cyanopyridin-2-yl)piperidin-4-yl]-3-[[(2S)-1-[6-oxo-5-(trifluoromethyl)-1,6-dihydropyridazin-4-yl]pyrrolidin-2-yl]methoxy]propanamide]
< 100 nM	C[C@H](O)[C@@H](COCCC(=O)N1CCN(c2ncc(C(F)(F)F)cn2)CC1)Nc1cn[nH]c(=O)c1C(F)(F)F [Example 635, 5-(((2R,3S)-3-Hydroxy-1-(3-oxo-3-(4-(5-(trifluoromethyl)pyrimidin-2-yl)piperazin-1-yl)propoxy)butan-2-yl)amino)-4-(trifluoromethyl)pyridazin-3(2H)-one]
< 100 nM	O=C(CCOC[C@@H](Nc1cn[nH]c(=O)c1C(F)(F)F)C1CC1)N1CCN(c2ncc(C(F)(F)F)cn2)CC1 [Example 606, (S)-5-[(1-Cyclopropyl-2-[3-oxo-3-[4-[5-(trifluoromethyl)pyrimidin-2-yl)piperazin-1-yl]propoxy]-ethyl]amino]-4-(trifluoromethyl)pyridazin-3(2H)-one]
< 100 nM	COC[C@@H](COCCC(=O)N1CCN(c2ncc(C(F)(F)F)cn2)CC1)Nc1cn[nH]c(=O)c1Br [Example 668, (S)-4-Bromo-5-((1-methoxy-3-(3-oxo-3-(4-(5-(trifluoromethyl)pyrimidin-2-yl)piperazin-1-yl)propoxy)propan-2-yl)amino)pyridazin-3(2H)-one]
100 to 1000 nM	CN(CC[C@@H]1CCCN1c1cn[nH]c(=O)c1C(F)(F)F)CC(=O)N1CCN(c2ccc(C#N)cn2)CC1 [Example 91]
100 to 1000 nM	CNCCOc1ccc2c(n1)CN(c1cn[nH]c(=O)c1C(F)(F)F)C2 [Example 318, 5-(2-(2-(Methylamino)ethoxy)-5,7-dihydro-6H-pyrrolo[3,4-b]pyridin-6-yl)-4-(trifluoromethyl)pyridazin-3(2H)-one]
< 100 nM	C[C@@H](COCCC(=O)N1CCN(c2ccc(C(F)(F)F)cn2)CC1)Oc1cn[nH]c(=O)c1C(F)(F)F [Example 584, 5-[[(2S)-1-(3-oxo-3-[4-[5-(trifluoromethyl)pyridin-2-yl]piperazin-1-yl]propoxy)propan-2-yl]oxy]-4-(trifluoromethyl)-2,3-dihydropyridazin-3-one]
< 100 nM	CN(C)CC(COCCC(=O)N1CCN(c2ccc(C#N)cn2)CC1)Oc1cn[nH]c(=O)c1C(F)(F)F (stereo not shown) [Example 542, 6-(4-[3-[3-(Dimethylamino)-2-[[6-oxo-5-(trifluoromethyl)-1,6-dihydropyridazin-4-yl]oxy]propoxy]propanoyl]piperazin-1-yl)pyridine-3-carbonitrile]
< 100 nM	C[C@@H](COCCC(=O)N1CCN(c2ncc(C(F)(F)F)s2)CC1)Nc1cn[nH]c(=O)c1C(F)(F)F [Example 622, (S)-5-((1-(3-Oxo-3-(4-(5-(trifluoromethyl)thiazol-2-yl)piperazin-1-yl)propoxy)propan-2-yl)amino)-4-(trifluoromethyl)pyridazin-3(2H)-one]
100 to 1000 nM	O=C(CCOC[C@H]1c2ccccc2CN1c1cn[nH]c(=O)c1Cl)N1CCN(c2ncc(C(F)(F)F)cn2)CC1 [Example 416, (R)-4-Chloro-5-(1-((3-oxo-3-(4-(5-(trifluoromethyl)pyrimidin-2-yl)piperazin-1-yl)propoxy)methyl)isoindolin-2-yl)pyridazin-3(2H)-one]
< 100 nM	N#Cc1ccc(N2CCN(C(=O)c3nccc(OCC4c5ccccc5CN4c4cn[nH]c(=O)c4C(F)(F)F)n3)CC2)nc1 (stereo not shown) [Example 46, 6-(4-[[4-([2-[6-oxo-5-(trifluoromethyl)-1,6-dihydropyridazin-4-yl]-2,3-dihydro-1H-isoindol-1-yl]methoxy)pyrimidin-2-yl]carbonyl]piperazin-1-yl)pyridine-3-carbonitrile]
100 to 1000 nM	C[C@@H](COCCC(=O)N1CCN(c2ncc(C(F)(F)F)cn2)CC1)N(C)c1cn[nH]c(=O)c1Cl [Example 636, (S)-4-Chloro-5-(methyl(1-(3-oxo-3-(4-(5-(trifluoromethyl)pyrimidin-2-yl)piperazin-1-yl)propoxy)propan-2-yl)amino)pyridazin-3(2H)-one]
< 100 nM	O=c1[nH]ncc(N2Cc3cccc(OCCN4CCOCC4)c3C2)c1C(F)(F)F [Example 214, 5-(4-(2-Morpholinoethoxy)isoindolin-2-yl)-4-(trifluoromethyl)pyridazin-3(2H)-one]
≥ 1000 nM	Cc1c(N2Cc3cccc(OC4CCNCC4)c3C2)cn[nH]c1=O [Example 175, 4-Methyl-5-(4-(piperidin-4-yloxy)isoindolin-2-yl)pyridazin-3(2H)-one]
< 100 nM	COC[C@@H](COCCC(=O)N1CCN(c2ncc(C#N)s2)CC1)Nc1cn[nH]c(=O)c1C(F)(F)F [Example 713, (S)-2-(4-(3-(3-Methoxy-2-((6-oxo-5-(trifluoromethyl)-1,6-dihydropyridazin-4-yl)amino)propoxy)propanoyl)piperazin-1-yl)thiazole-5-carbonitrile]
100 to 1000 nM	O=C(c1cccc(OC[C@H]2c3ccccc3CN2c2cn[nH]c(=O)c2C(F)(F)F)c1)N1CCN(c2ccccn2)CC1 [Example 350, (R)-5-(1-((3-(4-(Pyridin-2-yl)piperazine-1-carbonyl)phenoxy)methyl)isoindolin-2-yl)-4-(trifluoromethyl)pyridazin-3(2H)-one]
< 100 nM	C[C@@H](COCCC(=O)N1CCN(c2cnc(C(F)(F)F)cn2)CC1)Nc1cn[nH]c(=O)c1C(F)(F)F [Example 613, (S)-5-((1-(3-Oxo-3-(4-(5-(trifluoromethyl)pyrazin-2-yl)piperazin-1-yl)propoxy)propan-2-yl)amino)-4-(trifluoromethyl)pyridazin-3(2H)-one]
100 to 1000 nM	N#Cc1ccc(N2CCN(C(=O)C[C@H]3CC[C@H](COc4cn[nH]c(=O)c4C(F)(F)F)O3)CC2)nc1 (single isomer, unassigned) [Example 580 Isomer B]
< 100 nM	Cc1ccc(N2CCN(C(=O)CCOC[C@H](C)Oc3cn[nH]c(=O)c3C(F)(F)F)CC2)nc1 [Example 682, (S)-5-((1-(3-(4-(5-Methylpyridin-2-yl)piperazin-1-yl)-3-oxopropoxy)propan-2-yl)oxy)-4-(trifluoromethyl)pyridazin-3(2H)-one]
< 100 nM	O=C(C[C@H]1CC[C@@H]([C@@H]2CCCN2c2cn[nH]c(=O)c2C(F)(F)F)O1)N1CCN(c2ncc(Cl)cn2)CC1 [Example 147B, 5-[(2S)-2-[(2S,5R)-5-[2-[4-(5-chloropyrimidin-2-yl)piperazin-1-yl]-2-oxoethyl]oxolan-2-yl]pyrrolidin-1-yl]-4-(trifluoromethyl)-2,3-dihydropyridazin-3-one]
< 100 nM	C[C@@H](COCCC(=O)N1CCN(c2ncc(Cl)cn2)CC1)Nc1cn[nH]c(=O)c1Br [Example 602]
≥ 1000 nM	O=C(c1cccc(OCC2c3ccccc3CN2c2cn[nH]c(=O)c2C(F)(F)F)c1)N1CCNCC1 (stereo not shown) [Example 363, 5-(1-((3-(Piperazine-1-carbonyl)phenoxy)methyl)isoindolin-2-yl)-4-(trifluoromethyl)pyridazin-3(2H)-one]

SMILES	IC50
COc1cc2c(cn1)CN(c1cn[nH]c(=O)c1C(F)(F)F)C2 [Example 11, 5-[6-methoxy-1H,2H,3H-pyrrolo[3,4-c]pyridin-2-yl]-4-(trifluoromethyl)-2,3-dihydropyridazin-3-one]	< 100 nM
N#Cc1c(N2Cc3cccc(OC4CCNCC4)c3C2)cn[nH]c1=O [Example 182, 3-Oxo-5-(4-(piperidin-4-yloxy)isoindolin-2-yl)-2,3-dihydropyridazine-4-carbonitrile formic acid]	≥ 1000 nM
